In brackets after ≈: the same amount, converted by molar mass. Where two headings read alike, the source gives them in different places.
Columns and labels:
Type in all cases: cell-based, Clostridium difficile
[1] = tested on: C. difficile 630 ATCC BAA-1382; assay: MIC broth microdilution, C. difficile 630; settings: Clostridioides difficile, ATCCBAA1382, MtzS, 24 h, median of at least n = 4
Method: (§1) All compounds were tested for activity against a set of anaerobic C. difficile bacteria (630 ATCC BAA-1382, NAP1/027 M7404, NAP1/027 ATCC BAA-1803, VPI10463 ATCC 43255, CD26A54_S and CD26A54_R) and representative ESKAPE pathogens S. aureus (MRSA ATCC 43300), E. coli (ATCC 25922), K. pneumoniae (ATCC 700603), A. baumannii (ATCC 19606) and P. aeruginosa (ATCC 27853) using a standard broth microdilution assay. Selected compounds were tested for activity against H. pylori strains (26695, and clinical isolates MtzS 13/25, MtzR 98/285 and MtzR 13/61) using agar plate dilution, and for antimicrobial activity against […] Gram-positive bacterial strains: Enterococcus faecalis (VanA clinical isolate), Enterococcus faecium (MDR VanA ATCC 51559), Streptococcus pneumoniae (MDR ATCC 700677), S. aureus (MRSA ATCC 43300, MRSA clinical isolate, MRSA/DRSA clinical isolate, GISA NARSA NRS 1, GISA NARSA NRS 17, VRSA NARSA VRS1, VRSA NARSA VRS4 and VRSA NARSA VRS10) using broth microdilution. C. difficile strains were grown at 37 °C in a COY anaerobic chamber (5% H2, 10% CO2, 85% N2). H. pylori strains were grown at 37 °C under a microaerobic atmosphere (5% O2, 10% CO2). All facultative anaerobic bacteria were grown at 37 °C with normal atmospheric oxygen levels. All experiments were performed in duplicate with metronidazole, vancomycin, linezolid or colistin as positive controls for relevant strains (see Table 1). Positive growth control of bacteria and DMSO as well as a negative control of only media were included for every plate. Full assay details are provided in the supplementary information.
(§2) C. difficile ATCC BAA-1382, ATCC BAA-1803, ATCC 43255 and M7404 heat shocked spore stocks (10 µL) were transferred into the anaerobic chamber and 10 µL streaked onto pre-reduced (at least 2.5 hr in anaerobic chamber) BHIS agar plates supplemented with 0.1% w/v sodium taurocholate (BHIS(TA)). Plates were incubated for 24 hours prior to assay to give colonies of size 1-3mm diameter with characteristic uneven borders.
(§3) The minimum inhibition concentration was determined according to the CLSI Methods with modifications in broth and inoculum for C. difficile according to Babakhani et al.^7,8 Briefly, compounds were prepared to 20X final concentration in 100% water, 60% DMSO and 40% water or 60% DMSO and 40% media. The compounds along with standard antibiotics were serially diluted two-fold across the wells of 96-well non-binding surface plates (Non binding surface, Corning). The plates were placed in the anaerobic chamber overnight to reduce. C. difficile bacteria from BHIS(TA) agar plates were cultured anaerobically in BHIS at 37 °C overnight. A sample of culture was then diluted 40-fold in BHIS broth and incubated at 37 °C for approximately 4.5 hrs. The resultant mid-log phase culture (OD600= 0.5-0.6) was diluted to the final concentration of ~1×10^6 CFU/mL, then 50 µL was added to each well of the compound-containing 96-well plates. This gave final cell concentration of 5×10^5 CFU/mL, final volume 100 µL and 3% maximum DMSO concentration. Compound concentration was typically from 64 to 0.03 µg/mL. An antibiotic standard was included on each 96 well plate as well as a positive growth control (no compound) and sterility control (no bacteria). All the plates were covered and incubated at 37 °C for 24 h. MICs were the lowest concentration showing no visible growth.

[2] = tested on: C. difficile VPI10463 ATCC 43255; assay: MIC broth microdilution, C. difficile VPI 10463; settings: Clostridioides difficile, ATCC 43255 / ATCC BAA-1803; VPI 10463, MtzS, 24 h, median of at least n = 4
Method: as §1, §2, §3

[3] = tested on: C. difficile NAP1/027 ATCC BAA-1803; assay: MIC broth microdilution, C. difficile NAP1/027 ATCC BAA-1803; settings: Clostridioides difficile
Method: as §1, §2
as §3, with “All the plates were covered and incubated at 37 °C for 24 h.” left out

[4] = tested on: C. difficile NAP1/027 M7404; assay: MIC broth microdilution, C. difficile NAP1/027 M7404; settings: Clostridioides difficile, NAP1/027M7404; NAP1/027 (footnote d: M7404), MtzS, 24 h, median of at least n = 4
Method: as §1, §2, §3

[5] = ATCC 43255 / ATCC BAA-1803, NAP1/027 (footnote c: ATCC 43255), MtzS, 24 h, median of at least n = 4, read-out: MIC C. difficile NAP1/027 (footnote c)
[6] = ATCCBAA1803, 24 hr incubation, read-out: MIC C. difficile NAP1/027 ATCC BAA-1803 24 hr
[7] = ATCCBAA1803, 48 hr incubation, read-out: MIC C. difficile NAP1/027 ATCC BAA-1803 48 hr

Compound	MIC [1] [µg/mL]	MIC [2] [µg/mL]	MIC [3, 5] [µg/mL]	MIC [3, 6] [µg/mL]	MIC [3, 7] [µg/mL]	MIC [4] [µg/mL]
Cc1ncc([N+](=O)[O-])n1CCn1cc(-c2cncnc2)nn1 [Compound 4i, 1-(2-(2-methyl-5-nitro-1H-imidazol-1-yl)ethyl)-4-(5-pyrimidinyl)-1H-1,2,3-triazole]	1 (≈ 3.33 µM)	1 (≈ 3.33 µM)	0.5 to 1 (≈ 1.67 to 3.33 µM)	1 (≈ 3.33 µM)	1 (≈ 3.33 µM)	1 (≈ 3.33 µM)
Cc1ncc([N+](=O)[O-])n1CCn1cc(CCC(=O)O)nn1 [Compound 4r, sodium 1-(2-(2-methyl-5-nitro-1H-imidazol-1-yl)ethyl)-4-(carboxyethyl)-1H-1,2,3-triazole]	> 64	> 64	> 64	> 64	> 64	> 64
Cc1ccc(-c2cn(CCn3c([N+](=O)[O-])cnc3C)nn2)cc1 [Compound 4e, 1-(2-(2-methyl-5-nitro-1H-imidazol-1-yl)ethyl)-4-(p-tolyl)-1H-1,2,3-triazole]	0.5 (≈ 1.6 µM)	0.25 (≈ 0.8 µM)	0.5 (≈ 1.6 µM)	0.5 (≈ 1.6 µM)	0.5 (≈ 1.6 µM)	0.5 (≈ 1.6 µM)
Cc1ncc([N+](=O)[O-])n1CCn1cc(CN2CCS(=O)(=O)CC2)nn1 [Compound 4o, 1-(2-(2-methyl-5-nitro-1H-imidazol-1-yl)ethyl)-4-((1,1-dioxothiomorpholin-4-yl)methyl)-1H-1,2,3-triazole]	> 64	> 64	> 64	> 64	> 64	> 64
COc1ccc(-c2cn(CCn3c([N+](=O)[O-])cnc3C)nn2)cc1 [Compound 4b, 1-(2-(2-methyl-5-nitro-1H-imidazol-1-yl)ethyl)-4-(4-methoxyphenyl)-1H-1,2,3-triazole]	0.5 (≈ 1.52 µM)	0.25 to 0.5 (≈ 0.761 to 1.52 µM)	0.5 (≈ 1.52 µM)	0.5 (≈ 1.52 µM)	0.5 (≈ 1.52 µM)	0.5 (≈ 1.52 µM)
Cc1ncc([N+](=O)[O-])n1CCn1cc(Cc2ccccc2)nn1 [Compound 4k, 1-(2-(2-methyl-5-nitro-1H-imidazol-1-yl)ethyl)-4-benzyl-1H-1,2,3-triazole]	0.5 (≈ 1.6 µM)	0.25 to 0.5 (≈ 0.8 to 1.6 µM)	0.5 (≈ 1.6 µM)	0.5 (≈ 1.6 µM)	0.5 (≈ 1.6 µM)	0.5 (≈ 1.6 µM)
Cc1ncc([N+](=O)[O-])n1CCn1cc(-c2ccc(Cl)cc2)nn1 [Compound 4c, 1-(2-(2-methyl-5-nitro-1H-imidazol-1-yl)ethyl)-4-(4-chlorophenyl)-1H-1,2,3-triazole]	0.5 (≈ 1.5 µM)	0.25 (≈ 0.751 µM)	0.25 (≈ 0.751 µM)	0.25 (≈ 0.751 µM)	0.5 (≈ 1.5 µM)	0.25 (≈ 0.751 µM)

Reference: paper PMC4550478, “Metronidazole-triazole conjugates: Activity against Clostridium difficile and parasites” (European Journal of Medicinal Chemistry, 2015)
